Experimental data as given in ChEMBL document CHEMBL1123931, “N10-substituted 5,8-dideazafolate inhibitors of glycinamide ribonucleotide transformylase” (J Med Chem, 1987).
pKi: −log10 of the molar value.

Each molecule was assayed against T1, Trifunctional purine biosynthetic protein adenosine-3 (Mus musculus, UniProt Q64737) (assay: Inhibition of GAR transformylase isolated from murine lymphoma cell line L5178Y).
T1 sequence (Q64737 whole entry): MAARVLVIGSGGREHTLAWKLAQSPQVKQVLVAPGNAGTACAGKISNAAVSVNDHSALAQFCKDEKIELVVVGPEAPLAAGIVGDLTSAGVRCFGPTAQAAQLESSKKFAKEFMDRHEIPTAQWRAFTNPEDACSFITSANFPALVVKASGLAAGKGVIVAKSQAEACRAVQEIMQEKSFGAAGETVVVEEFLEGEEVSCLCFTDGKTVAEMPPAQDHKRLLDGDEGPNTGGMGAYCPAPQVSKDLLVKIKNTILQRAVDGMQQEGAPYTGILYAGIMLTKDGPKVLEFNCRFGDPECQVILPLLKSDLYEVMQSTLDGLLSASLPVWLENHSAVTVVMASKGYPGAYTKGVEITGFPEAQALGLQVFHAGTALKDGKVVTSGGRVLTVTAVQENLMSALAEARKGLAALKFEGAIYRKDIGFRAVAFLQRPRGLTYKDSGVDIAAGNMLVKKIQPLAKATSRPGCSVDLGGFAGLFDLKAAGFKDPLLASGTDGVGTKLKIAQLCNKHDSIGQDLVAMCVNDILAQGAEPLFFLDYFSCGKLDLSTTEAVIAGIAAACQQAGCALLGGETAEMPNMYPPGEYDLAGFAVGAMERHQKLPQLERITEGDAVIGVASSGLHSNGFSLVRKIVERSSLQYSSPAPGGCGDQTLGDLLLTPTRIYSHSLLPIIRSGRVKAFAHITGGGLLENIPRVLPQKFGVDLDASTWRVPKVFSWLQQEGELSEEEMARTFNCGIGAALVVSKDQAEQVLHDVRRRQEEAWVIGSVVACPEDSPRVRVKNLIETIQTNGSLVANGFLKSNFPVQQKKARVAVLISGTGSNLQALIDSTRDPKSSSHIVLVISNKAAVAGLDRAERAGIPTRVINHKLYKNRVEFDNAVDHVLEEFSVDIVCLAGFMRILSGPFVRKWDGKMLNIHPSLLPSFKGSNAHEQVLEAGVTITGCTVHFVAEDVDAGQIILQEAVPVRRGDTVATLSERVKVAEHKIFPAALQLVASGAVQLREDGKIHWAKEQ
Format: cell-free

Row | SMILES | pKi
1 | Nc1nc2ccc(CN(Cc3cccc(F)c3)c3ccc(C(=O)NC(CCC(=O)O)C(=O)O)cc3)cc2c(=O)[nH]1 (configuration not stated) | 4.74
2 | N#CCCCN(Cc1ccc2nc(N)nc(O)c2c1)c1ccc(C(=O)NC(CCC(=O)O)C(=O)O)cc1 (configuration not stated) | 4.96
3 | Nc1nc2ccc(CN(CC3CC3)c3ccc(C(=O)NC(CCC(=O)O)C(=O)O)cc3)cc2c(=O)[nH]1 (configuration not stated) | 5.10
4 | CC(C)N(Cc1ccc2nc(N)nc(O)c2c1)c1ccc(C(=O)NC(CCC(=O)O)C(=O)O)cc1 (configuration not stated) | 4.72
5 | Nc1nc2ccc(CN(CCC(=O)O)c3ccc(C(=O)NC(CCC(=O)O)C(=O)O)cc3)cc2c(=O)[nH]1 (configuration not stated) | 4.49

Next, values leading:

Row | pKi | SMILES
6 | 5.15 | Nc1nc2ccc(CN(Cc3c[nH]c(=O)[nH]c3=O)c3ccc(C(=O)NC(CCC(=O)O)C(=O)O)cc3)cc2c(=O)[nH]1 (configuration not stated)
7 | 5.22 | C#CCN(Cc1ccc2[nH]c(N)nc(=O)c2c1)c1ccc(C(=O)NC(CCC(=O)O)C(=O)O)cc1 (configuration not stated)
8 | 5.30 | Nc1nc2ccc(CN(CC(=O)O)c3ccc(C(=O)NC(CCC(=O)O)C(=O)O)cc3)cc2c(=O)[nH]1 (configuration not stated)
9 | 5.52 | Nc1nc(O)c2cc(CN(CC(=O)c3ccccc3)c3ccc(C(=O)NC(CCC(=O)O)C(=O)O)cc3)ccc2n1 (configuration not stated)
10 | 5.70 | Nc1nc(O)c2cc(CNc3ccc(C(=O)NC(CCC(=O)O)C(=O)O)cc3)ccc2n1 (configuration not stated) [DIDEAZAFOLATE]
11 | 5.89 | CC(=O)N(Cc1ccc2nc(N)[nH]c(=O)c2c1)c1ccc(C(=O)NC(CCC(=O)O)C(=O)O)cc1 (configuration not stated)

Each molecule was assayed against T1, Trifunctional purine biosynthetic protein adenosine-3 (assay: Inhibition of GAR transformylase isolated from the murine lymphoma cell line L5178Y).
Format: cell-free

Row | pKi | SMILES
12 | 4.80 | CCN(Cc1ccc2nc(N)nc(O)c2c1)c1ccc(C(=O)NC(CCC(=O)O)C(=O)O)cc1 (configuration not stated)
